Counter-ions that a name gives are not always drawn.
Key:
Type in all cases: cell-based
[1] = test system: M. abscessus type strain 19977; assay: Intracellular CFU in M. abscessus infected THP-1 cells (THP-1 NTM model), strain 19977
Method: (§1) THP-1 cells were seeded in PMA and cultured for 48 hours, exposed to M. abscessus (type strain 19977 or clinical isolate Stanford A or NIH26) at multiplicity of infection (MOI) of approx. 2 for 1 hour followed by incubation with […] amikacin sulfate for 23 hours to reduce the extracellular NTM population. Liposomal amikacin formulations were added at 16, 32, 64, and 128 μg/mL of active concentration and incubated for 24 hours at 37° C. At the end of four 24 hour treatment cycles, cells were washed, lysed, serially diluted, plated, and incubated at 37° C. for 4 days to determine final intracellular CFU counts. Formulations were loaded with streptomycin and tested against the M. abscessus strains 19977 and Stanford A. Results are shown in Table 8.

[2] = test system: M. abscessus clinical isolate Stanford A; assay: Intracellular CFU in M. abscessus infected THP-1 cells (THP-1 NTM model), Stanford A
Method: as §1

[3] = test system: M. abscessus clinical isolate NIH26; assay: Intracellular CFU in M. abscessus infected THP-1 cells (THP-1 NTM model), NIH26; details: NIH 26, 128 μg/mL amikacin
Method: as §1, with “counts.” for “counts. Formulations were loaded with streptomycin and tested against the M. abscessus strains 19977 and Stanford A. Results are shown in Table 8.”

[4] = 128 μg/mL amikacin, vs pretreatment
[5] = 128 μg/mL streptomycin sulfate, vs pretreatment

SMILES	In vitro killing (CFU remaining after 96 h treatment with 128 μg/mL ami-in THP-1 NTM model) ([1]; 128 μg/mL amikacin) [CFU]	In vitro killing (additional % CFU killed compared to pretreatment after 96 h treatment with 128 μg/mL ami in THP-1 NTM model) [1, 4] [%]	In vitro killing (CFU remaining after 96 h treatment with 128 μg/mL ami-in THP-1 NTM model) ([2]; 128 μg/mL amikacin) [CFU]	In vitro killing (additional % CFU killed compared to pretreatment after 96 h treatment with 128 μg/mL ami in THP-1 NTM model) [2, 4] [%]	In vitro killing (CFU remaining after 96 h treatment with 128 μg/mL ami-in THP-1 NTM model) [3] [CFU]	In vitro killing (additional % CFU killed compared to pretreatment after 96 h treatment with 128 μg/mL ami in THP-1 NTM model) ([3]; vs pretreatment) [%]	In vitro killing (CFU remaining after 96 h treatment with 128 μg/mL streptomycin sulfate in THP-1 NTM model) ([1]; 128 μg/mL streptomycin sulfate) [CFU]	In vitro killing (addtl. % CFU killed compared to pretreatment after 96 h treatment with 128 μg/mL streptomycin sulfate in THP-1 NTM model) [1, 5] [%]	In vitro killing (CFU remaining after 96 h treatment with 128 μg/mL streptomycin sulfate in THP-1 NTM model) ([2]; 128 μg/mL streptomycin sulfate) [CFU]	In vitro killing (addtl. % CFU killed compared to pretreatment after 96 h treatment with 128 μg/mL streptomycin sulfate in THP-1 NTM model) [2, 5] [%]
NCC[C@H](O)C(=O)N[C@@H]1C[C@H](N)[C@@H](O[C@H]2O[C@H](CN)[C@@H](O)[C@H](O)[C@H]2O)[C@H](O)[C@H]1O[C@H]1O[C@H](CO)[C@@H](O)[C@H](N)[C@H]1O [free ami, amikacin]	135000	50.1	135000	75	214667	37.4				
[H]/N=C(/N)N[C@H]1[C@H](O)[C@@H](O)[C@H](O[C@@H]2O[C@@H](C)[C@](O)(C=O)[C@H]2O[C@@H]2O[C@@H](CO)[C@H](O)[C@@H](O)[C@@H]2NC)[C@@H](N/C(N)=N\[H])[C@@H]1O [free streptomycin sulfate, streptomycin sulfate]							408000	35.8	424000	27.4

From patent US20170165374A1, “COMPOSITIONS AND METHODS FOR TREATING BACTERIAL INFECTIONS” (Insmed, Inc., priority 2015, published 2017)
